{
  "source": "patent US20200352976A1",
  "about": "“HYPOMETHYLATING AGENTS FOR USE IN TREATMENT OF CANCER” (Otsuka Pharmaceutical Co., Ltd, priority 2019, published 2020)",
  "tested_on": "treatment naïve acute myeloid leukemia (TN-AML)",
  "test": "Phase 3 randomized trial Compound I-1 vs treatment choice: CR, OS, PFS, EFS, subgroup analyses",
  "type": "in vivo, human",
  "settings": "for EFS HR (95% CI) / PFS HR (95% CI): Compound I-1/TC",
  "protocol": "A Phase 3 randomized trial comparing Compound I-1 to a treatment choice of azacitidine, decitabine, or Low Dose Ara-C(LDAC) in patients with AML was performed.\nThe patients were randomized 1:1 to either Compound I-1 (60 mg/m^2/d subcutaneous injection for 5 days of a 28-day cycle), or a preselected treatment choice of azacitidine, decitabine, or LDAC at standard doses. AML diagnosis and response status were assessed by an independent blinded central pathologist. CR and OS were the co-primary endpoints.\nCompound I-1 powder was reconstituted at a concentration of 100 mg/mL and administered subcutaneously (SC) at a dose of 60 mg/m^2 daily on days 1-5 of a 28-day cycle.\nLDAC was given at a dose of 20 mg SC twice daily (BID) on days 1-10 of a 28-day cycle. Decitabine was given at a dose of 20 mg/m^2 as a 1-hour intravenous (IV) infusion on days 1-5 of a 28-day cycle. Azacitidine was given IV or SC daily on days 1-7 of a 28-day cycle at a dose of 75 mg/m^2. Other TC treatment parameters such as dose adjustment guidelines followed locally approved prescribing information and institutional standard practice.\nTwo co-primary endpoints were used: complete response (CR) rate based on modified International Working Group (IWG) 2003 AML Response Criteria and OS (the number of days from randomization to death). Secondary endpoints included CRc (CR+CR with incomplete blood count recovery [CRi]+CR with incomplete platelet recovery [CRp]) rate, number of days alive and out of the hospital (NDAOH), progression-free survival (PFS), health related quality of life (QOL) by EQ-5D (consisting of the EQ-5D-5L descriptive system and the EQ Visual Analogue Scale [EQ VAS]), duration of CR (the time from first CR to time of relapse), incidence and severity of adverse events (AEs), and 30- and 60-day all-cause mortality.\nCR rate was compared between Compound I-1 and TC groups using Cochran Mantel-Haenszel test at an alpha of 0.04, stratified by the stratification factors used at randomization. OS curves were estimated using Kaplan-Meier (K-M) method and formally compared between Compound I-1 and TC groups using a 2-sided stratified log-rank test, stratified by the same stratification factors used at randomization. Sensitivity analyses were conducted for CR rate and OS to evaluate the robustness of the treatment effect.\nCRc rate was compared between treatment groups using a Cochran Mantel-Haenszel test with the same stratification variable as for CR and OS. NDAOH was compared between treatment groups using an analysis of variance model (ANOVA) with stratification variables used as fixed factors. PFS was compared between treatment groups using a stratified log-rank test.\nThe number of RBC and platelet transfusions up to Day 180 were summarized descriptively. 95% CI of the mean was also provided. The EQ-5D-5L index values and EQ VAS up to Day 180 were analyzed descriptively and using a mixed model approach for repeated measures.\nData obtained during the trial of EXAMPLE 4 were further analyzed for selected subgroups of patients including patients who achieved CR in patients who received at least 4 or 6 treatment cycles.\nTN-AML patients ineligible for intensive chemotherapy (IC) due to age ≥75 y, coexisting morbidities, or ECOG PS 2-3 were randomized 1:1 to either Compound I-1 (60 mg/m^2/d SC for 5-days Q28 days) or a preselected treatment choice (TC) of azacitidine (AZA), decitabine (DEC), or low-dose Ara-C(LDAC) at the prescribed dosing schedule. AML diagnosis and response status were assessed by an independent central pathologist blinded to randomization assignment. Complete response (CR) and overall survival (OS) were the co-primary endpoints. The patients' characteristics, number of treatment cycles, reasons for treatment discontinuation, CR, and OS including analyses by number of cycles received including prospective subgroups, and OS analyses of responders and non-responders were analyzed. […]",
  "key": {"[1]": {"settings": "number of days alive and out of the hospital"}, "[2]": {"settings": "patients with at least 4 cycles"}, "[3]": {"settings": "patients with at least 4 cycles (n = 476)"}, "[4]": {"settings": "patients with at least 6 cycles"}, "[5]": {"settings": "patients with at least 6 cycles (n = 375)"}},
  "note": "Values joined by “and” are separate entries in the source; they are usually repeats but may differ in a detail not shown here. Identical values can stand only once.",
  "data": [
    {"compound": "Nc1ncn([C@H]2CC(OP(=O)(O)OC[C@H]3O[C@@H](n4cnc5c(=O)[nH]c(N)nc54)CC3O)[C@@H](CO)O2)c(=O)n1", "note": "(stereo partly shown) [Compound I-1]", "values": [
      {"measurement": "CR odds ratio (logistic regression)", "setting": "Compound I-1 vs TC", "value": 1.14},
      {"measurement": "CR rate Treatment Difference", "setting": "Compound I-1 vs TC", "value": 1.92, "unit": "%"},
      {"measurement": "CRc rate Treatment Difference", "setting": "Compound I-1 vs TC", "value": 0.39},
      {"measurement": "NDAOH LS Mean Treatment Difference", "setting": "Compound I-1 vs TC", "value": "−7.8"},
      {"measurement": "Overall survival hazard ratio", "setting": "Compound I-1 vs each treatment choice", "value": "less than 1"},
      {"measurement": "12-month survival rate", "setting": "ITT", "value": 37, "unit": "%"},
      {"measurement": "24-month survival rate", "setting": "ITT", "value": 18, "unit": "%"},
      {"measurement": "Median PFS", "setting": "ITT", "value": 5.3, "unit": "months"},
      {"measurement": "Overall Survival K-M Estimate, 25th percentile", "setting": "ITT", "value": 71.0, "unit": "days"},
      {"measurement": "Overall Survival K-M Estimate, 75th percentile", "setting": "ITT", "value": 584.0, "unit": "days"},
      {"measurement": "Overall Survival K-M Estimate, Median", "setting": "ITT", "value": "213 days and 213.0 days"},
      {"measurement": "PFS K-M Estimate, Median", "setting": "ITT", "value": 159, "unit": "days"},
      {"measurement": "Survival, 75th percentile", "setting": "ITT", "value": 19.5, "unit": "months"},
      {"measurement": "Median EFS", "setting": "ITT Population (n = 815)", "value": 5.1, "unit": "months"},
      {"measurement": "Median OS", "setting": "ITT Population (n = 815)", "value": 7.1, "unit": "months"},
      {"measurement": "EFS HR (95% CI)", "setting": "ITT Population", "value": "0.85 (0.74-0.98), p 0.02"},
      {"measurement": "PFS HR", "setting": "ITT, Compound I-1 vs TC", "value": "0.99 (0.86-1.15), p 0.93"},
      {"measurement": "12-month survival rate", "setting": "ITT, as fraction", "value": 0.37},
      {"measurement": "24-month survival rate", "setting": "ITT, as fraction", "value": 0.18},
      {"measurement": "CRc (CR + CRi + CRp)", "setting": "ITT, N = 408 / 407", "value": 93, "unit": "subjects"},
      {"measurement": "Complete Response (CR)", "setting": "ITT, N = 408 Compound I-1, N = 407 TC", "value": 79, "unit": "subjects"},
      {"measurement": "Overall survival hazard ratio", "setting": "baseline TP53 mutations (94 patients), Compound I-1 vs treatment choice", "value": 1.8},
      {"measurement": "Median duration of CR", "setting": "complete responders", "value": 7.2, "unit": "months"},
      {"measurement": "EQ VAS LS mean change from baseline", "setting": "first 6 months", "value": 0.87},
      {"measurement": "Platelet transfusions, mean", "setting": "first 6 months", "value": 12.5, "unit": "units"},
      {"measurement": "RBC transfusions, mean", "setting": "first 6 months", "value": 16.2, "unit": "units"},
      {"measurement": "Index EQ-5D-5L score LS mean difference", "setting": "first 6 months, Compound I-1 vs TC", "value": "−0.019"},
      {"measurement": "Mean NDAOH over 6 months", "setting": "in vivo", "value": 3.3, "unit": "months"},
      {"measurement": "NDAOH per patient-year rate", "setting": "in vivo", "value": 297, "unit": "days"},
      {"measurement": "One-year survival rate", "setting": "landmark analysis (approximately 4 months), at least 4 cycles", "value": 51, "unit": "%"},
      {"measurement": "Overall survival hazard ratio", "setting": "landmark analysis, greater than 3 treatment cycles, Compound I-1 vs TC", "value": 0.78},
      {"measurement": "Treatment Discontinuation Before 4 Cycles: Progressive Disease", "setting": "n = 408 I-1, n = 407 TC", "value": 7.6, "unit": "%"},
      {"measurement": "Treatment Discontinuation Before 6 Cycles: Progressive Disease", "setting": "n = 408 I-1, n = 407 TC", "value": 10.8, "unit": "%"},
      {"measurement": "OS HR", "setting": "non-responders, at least 6 cycles, Compound I-1 vs TC", "value": 0.73},
      {"measurement": "NDAOH in First 6 Months, LS Mean", "setting": "[1]", "value": 98.9},
      {"measurement": "NDAOH in First 6 Months, Mean", "setting": "[1]", "value": 98.1},
      {"measurement": "Median EFS", "setting": "patients who achieved an objective response (CR, CRp, CRi, or PR)", "value": 17.4, "unit": "m"},
      {"measurement": "EFS HR", "setting": "patients who achieved an objective response, Compound I-1 vs TC", "value": 0.68},
      {"measurement": "Median OS", "setting": "[2]", "value": 15.6, "unit": "months"},
      {"measurement": "CR Rate", "setting": "patients with at least 4 cycles (n = 235 I-1; n = 241 TC)", "value": 33.6, "unit": "%"},
      {"measurement": "Median EFS", "setting": "[3]", "value": 12.1, "unit": "months"},
      {"measurement": "Median PFS", "setting": "[3]", "value": 10.3, "unit": "months"},
      {"measurement": "EFS HR (95% CI)", "setting": "[2]", "value": "0.74 (0.61-0.9), p 0.002"},
      {"measurement": "PFS HR (95% CI)", "setting": "[2]", "value": "0.88 (0.73-1.06), p 0.17"},
      {"measurement": "OS HR (95% CI)", "setting": "patients with at least 4 cycles, Compound I-1 vs TC", "value": "0.78 (0.64, 0.96), p 0.02 and 0.78 (0.64-0.96), p 0.02"},
      {"measurement": "Median OS", "setting": "[4]", "value": 19.5, "unit": "months"},
      {"measurement": "CR Rate", "setting": "patients with at least 6 cycles (n = 187 I-1; n = 188 TC)", "value": 40.1, "unit": "%"},
      {"measurement": "Median EFS", "setting": "[5]", "value": 14.9, "unit": "months"},
      {"measurement": "Median PFS", "setting": "[5]", "value": 11.9, "unit": "months"},
      {"measurement": "EFS HR (95% CI)", "setting": "[4]", "value": "0.69 (0.56-0.86), p 0.001"},
      {"measurement": "PFS HR (95% CI)", "setting": "[4]", "value": "0.86 (0.7-1.07), p 0.17"},
      {"measurement": "OS HR (95% CI)", "setting": "patients with at least 6 cycles, Compound I-1 vs TC", "value": "0.69 (0.54, 0.88), p 0.002 and 0.69 (0.54-0.88), p 0.002"},
      {"measurement": "OS HR", "setting": "responders (CR, CRp, CRi, or PR), at least 6 cycles, Compound I-1 vs TC", "value": 0.66},
      {"measurement": "OS HR", "setting": "subjects who achieved any CR (CR, CRp, or CRi), Compound I-1 vs TC, post hoc", "value": 0.72},
      {"measurement": "Overall survival hazard ratio", "setting": "without TP53 mutations (696 patients), Compound I-1 vs treatment choice", "value": 0.86}
    ]}
  ]
}
